SMILES | melting point [°C]
O=c1[nH]ncc2[nH]c(-c3ccc(OC(F)F)c(OC4CC4)c3)c(CCc3ccccc3)c12 [Example 21, 2-(3-Cyclopropoxy-4-difluoromethoxyphenyl)-3-phenethyl-1,5-dihydropyrrolo[2,3-d]pyridazin-4-one] | 199 to 201
CC(C)(C)OCc1c(-c2ccc(OC(F)F)c(OC3CC3)c2)[nH]c2cn[nH]c(=O)c12 [Example 64, 3-(tert-Butoxymethyl)-2-(3-cyclopropoxy-4-difluoromethoxyphenyl)-1,5-dihydropyrrolo[2,3-d]pyridazin-4-one] | > 300
O=C(O)c1cccc(Cc2c(-c3ccc(OC(F)F)c(OC4CC4)c3)[nH]c3cn[nH]c(=O)c23)c1 [Example 27, 3-(3-Carboxybenzyl)-2-(3-cyclopropoxy-4-difluoromethoxyphenyl)-1,5-dihydropyrrolo[2,3-d]pyridazin-4-one] | 155 to 163
CCC(CC)OCc1c(-c2ccc(OC(F)F)c(OC3CC3)c2)[nH]c2cn[nH]c(=O)c12 [Example 65, 2-(3-Cyclopropoxy-4-difluoromethoxyphenyl)-3-(1-ethylpropoxymethyl)-1,5-dihydropyrrolo[2,3-d]pyridazin-4-one] | 133 to 162
N#Cc1ccccc1Cc1c(-c2ccc(OC(F)F)c(OC3CC3)c2)[nH]c2cn[nH]c(=O)c12 [Example 25, 3-(2-Cyanobenzyl)-2-(3-cyclopropoxy-4-difluoromethoxyphenyl)-1,5-dihydropyrrolo[2,3-d]pyridazin-4-one] | > 300
COc1ccc(-c2[nH]c3cn[nH]c(=O)c3c2Cl)cc1OC(C)C [Example 48, 3-Chloro-2-(3-isopropoxy-4-methoxyphenyl)-1,5-dihydropyrrolo[2,3-d]pyridazin-4-one] | 291 to 299

Next, values leading:

melting point [°C] | SMILES
281 to 283 | O=c1[nH]ncc2[nH]c(-c3ccc(OC(F)F)c(OC4CC4)c3)c(Cl)c12 [Example 2, 3-Chloro-2-(3-cyclopropoxy-4-difluoromethoxyphenyl)-1,5-dihydropyrrolo[2,3-d]pyridazin-4-one]
294 to 297 | O=c1[nH]ncc2[nH]c(-c3ccc(OC(F)F)c(OC4CC4)c3)c(-c3cn[nH]c3)c12 [Example 18, 2-(3-Cyclopropoxy-4-difluoromethoxyphenyl)-3-(4-pyrazolyl)-1,5-dihydropyrrolo[2,3-d]pyridazin-4-one]
194 to 197 | O=c1[nH]ncc2[nH]c(-c3ccc(OC(F)F)c(OC4CC4)c3)c(CCC3CC3)c12 [Example 70, 2-(3-cyclopropoxy-4-difluoromethoxyphenyl)-3-(2-cyclopropylethyl)-1,5-dihydropyrrolo[2,3-d]pyridazin-4-one]
193 to 195 | O=c1[nH]ncc2[nH]c(-c3ccc(OC(F)F)c(OC4CC4)c3)c(Cc3ccc(F)cc3)c12 [Example 24, 2-(3-Cyclopropoxy-4-difluoromethoxyphenyl)-3-(4-fluorobenzyl)-1,5-dihydropyrrolo[2,3-d]pyridazin-4-one]
176 to 179 | C=CCc1c(-c2ccc(OC(F)F)c(OC3CC3)c2)[nH]c2cn[nH]c(=O)c12 [Example 74, 2-(3-Cyclopropoxy-4-difluoromethoxyphenyl)-3-(2-propenyl)-1,5-dihydropyrrolo[2,3-d]pyridazin-4-one]
245 to 246 | C#CCc1c(-c2ccc(OC(F)F)c(OC3CC3)c2)[nH]c2cn[nH]c(=O)c12 [Example 71, 2-(3-Cyclopropoxy-4-difluoromethoxyphenyl)-3-(2-propynyl)-1,5-dihydropyrrolo[2,3-d]pyridazin-4-one]
138 to 143 | O=c1[nH]ncc2[nH]c(-c3ccc(OC(F)F)c(OC4CC4)c3)c(-c3ccccc3)c12 [Example 17, 2-(3-Cyclopropoxy-4-difluoromethoxyphenyl)-3-phenyl-1,5-dihydropyrrolo[2,3-d]pyridazin-4-one]

Reference: US8450319B2, “Pyrrolopyridazinone compound” (Ube Industries, Ltd., priority 2006, dated 2013)
